Results reported in PubChem BioAssay (NCI).
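Grown in 96-well plates, cells were treated for 48 hours with each compound at five concentrations. Insufficient inhibition: endpoint recorded as highest concentration tested. Here, GI50 denotes the concentration required for 50% inhibition of growth. TGI is the concentration that stops growth completely.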

Legend:
Experiment in all cases: NCI-60 cell line screen, 48 h
[1] = system: HCC-2998 colon
[2] = system: HCT-116 colon
[3] = system: K-562 leukemia
[4] = system: MDA-MB-231 breast
[5] = system: MDA-N
[6] = system: NCI-H226 lung
[7] = system: OVCAR-5 ovarian
[8] = system: SK-MEL-28 melanoma
[9] = system: TK-10 renal
[10] = system: LOX IMVI melanoma

Row | Structure (SMILES) | TGI [1] [µM] | TGI [2] [µM] | TGI [3] [µM] | TGI [4] [µM] | TGI [5] [µM] | TGI [6] [µM] | TGI [7] [µM] | TGI [8] [µM] | TGI [9] [µM] | TGI [10] [µM] | GI50 [1] [µM] | GI50 [2] [µM] | GI50 [3] [µM] | GI50 [10] [µM] | GI50 [6] [µM] | GI50 [7] [µM] | GI50 [8] [µM]
1 | CSc1ccc2c(c1)c(CCN)c(C)n2Cc1ccccc1Cl | 2.04 | 3.07 | 2.83 | 3.66 | 3.11 | 4.1 | 3.78 | 3.22 | 3.15 | – | – | – | – | – | – | – | –
2 | O=C1c2cccnc2-c2nccc3c2c1nc1ccccc13 | – | 0.18 | 0.667 | 0.674 | 0.359 | 0.738 | 1.65 | 1.47 | 2.84 | 0.207 | – | – | – | – | – | – | –
3 | C=CCOC(=O)Cn1ccc(=O)[nH]c1=O | > 100 | > 100 | > 100 | > 100 | > 100 | > 100 | > 100 | > 100 | > 100 | > 100 | – | – | – | – | – | – | –
4 | COC(=O)c1c2c(cc3c1CC1(Cc4ccccc4C1)C3)CCC2 | 98.7 | 84.4 | 24.3 | 44.9 | 33.9 | > 100 | > 100 | > 100 | > 100 | 34 | – | – | – | – | – | – | –
5 | CCCN(CCC)C(=O)c1c(N2CCN(C)CC2)c2cccnc2n2c(C)cnc12 | – | > 100 | > 100 | > 100 | > 100 | > 100 | > 100 | > 100 | > 100 | > 100 | – | – | – | – | – | – | –
6 | COc1cc(/C=C/C(=N\NC(N)=S)c2sc(NNC(C)=O)nc2C)ccc1O | > 100 | > 100 | > 100 | > 100 | > 100 | > 100 | > 100 | > 100 | > 100 | > 100 | – | – | – | – | – | – | –
7 | Cc1ccc(S(=O)(=O)N(CCNC(=O)c2cccc(O)c2O)c2cc3c4c(c2)Oc2cccc5c2C4(C)c2c(cccc2O3)O5)cc1 | > 100 | > 100 | > 100 | > 100 | > 100 | 65.8 | > 100 | > 100 | > 100 | > 100 | – | – | – | – | – | – | –
8 | Nc1ccn(C2CCC(COP(=O)(O)OCC(O)COP(=O)(O)OCC3OC(n4cc(F)c(=O)[nH]c4=O)CC3O)O2)c(=O)n1 (centres undefined) | > 100 | > 100 | > 100 | > 100 | > 100 | > 100 | > 100 | > 100 | > 100 | > 100 | – | – | – | – | – | – | –
9 | O=c1/c(=C/c2ccccn2)sc2nc3cc4c(cc3n12)OCCO4 | > 100 | > 100 | > 100 | > 100 | > 100 | > 100 | > 100 | > 100 | > 100 | > 100 | – | – | – | – | – | – | –
10 | COc1ccc(N2C(=O)/C(=C/c3ccc(N(CCC#N)CCC#N)cc3)N=C2c2ccccc2)cc1 | – | > 100 | > 100 | > 100 | > 100 | > 100 | > 100 | > 100 | > 100 | > 100 | – | – | – | – | – | – | –
11 | C=C(C)CCC1C=[N+]([O-])OC(C)(C)C1(C)C (centres undefined) | > 100 | > 100 | > 100 | > 100 | > 100 | > 100 | > 100 | – | > 100 | > 100 | – | – | – | – | – | – | –
12 | CCOS(=O)(=O)c1ccc(-c2c3nc(c(-c4ccc(S(=O)(=O)OCC)cc4)c4ccc([nH]4)c(-c4ccc(S(=O)(=O)OCC)cc4)c4nc(c(-c5ccc(S(=O)(=O)OCC)cc5)c5ccc2[nH]5)C=C4)C=C3)cc1 | > 31.6 | > 31.6 | – | > 31.6 | > 31.6 | > 100 | > 31.6 | – | > 31.6 | – | – | – | – | – | – | – | –
13 | CN(C)CC1CCC/C(=C\c2ccc(OC(=O)/C=C/c3ccc(Cl)cc3)cc2)C1=O (centres undefined) | 13.1 | 11 | 4.04 | 21 | 18.6 | 20.2 | 25.7 | 14.7 | 4.73 | 9.39 | – | – | – | – | – | – | –
14 | CCNC(=S)NNC(=O)c1ccccc1Nc1ccccc1C(=O)NNC(=S)NCC | > 100 | > 100 | > 100 | > 100 | > 100 | > 100 | > 100 | > 100 | > 100 | > 100 | – | – | – | – | – | – | –
15 | Cc1ccnc(Nc2[nH]c(C(=O)c3ccc(Cl)cc3)c(N)c2C(=S)Nc2ccccc2)c1 | 29.7 | 30 | 52.4 | 31.6 | 47.9 | 45.6 | 55.3 | 35.9 | 69.2 | 28.3 | – | – | – | – | – | – | –
16 | C/C(=N\NC(N)=S)c1nc2ncccc2[nH]1 | > 100 | > 100 | > 100 | > 100 | > 100 | > 91.4 | > 100 | > 100 | > 100 | > 100 | – | – | – | – | – | – | –
17 | CC(=O)NC(C)(C)C1CCC(C)CC1 (centres undefined) | > 100 | > 100 | > 100 | > 100 | > 100 | > 100 | > 100 | > 100 | > 100 | > 100 | – | – | – | – | – | – | –
18 | COc1ccc([I+]c2ccc(OC)cc2)cc1 | > 100 | > 100 | > 100 | > 100 | > 38.3 | > 100 | > 100 | > 100 | > 100 | > 100 | 16 | 2.83 | 2.74 | 6.05 | 14.4 | > 60.8 | 20.6
19 | COC(=O)c1ccccc1C1CN=NC12Cc1ccc3c(c1C2=O)CCC3 (centres undefined) | > 100 | > 100 | > 100 | > 100 | > 100 | > 100 | > 100 | > 100 | > 100 | > 100 | – | – | – | – | – | – | –
20 | CCN(C(=O)N[C@H](C(=O)N[C@@H](CSC)C(=O)N[C@@H](C)C(=O)OC)C(C)C)c1ccccc1 | 39.3 | 30.9 | > 100 | 29 | 36.2 | 31.8 | 29.5 | 28.7 | 26.4 | 23.5 | – | – | – | – | – | – | –
21 | NC1=Nc2ccccc2Sc2cccc(F)c21 | > 100 | > 100 | > 100 | > 100 | > 100 | > 100 | > 100 | > 100 | > 100 | > 100 | – | – | – | – | – | – | –
